Assay results as given in publication PMC11802874, “The hypolipidemic effect of MI-883, the combined CAR agonist/ PXR antagonist, in diet-induced hypercholesterolemia model” (Nature Communications, 2025).
Several values for one entry are separate records, joined by “and”; a condition that tells them apart may be missing. Equal values may be shown once.

How the values were obtained:
[1] = target: T1, human CAR ligand-binding domain (LBD) (Homo sapiens, UniProt Q14994); assay: TR-FRET CAR coactivator assay (LanthaScreen); assay type: biochemical
T1 construct: purchased ThermoFisher Scientific PV4836
T1 sequence (Q14994 109-348 isoform Q14994-2 limits assumed, other chains not shown): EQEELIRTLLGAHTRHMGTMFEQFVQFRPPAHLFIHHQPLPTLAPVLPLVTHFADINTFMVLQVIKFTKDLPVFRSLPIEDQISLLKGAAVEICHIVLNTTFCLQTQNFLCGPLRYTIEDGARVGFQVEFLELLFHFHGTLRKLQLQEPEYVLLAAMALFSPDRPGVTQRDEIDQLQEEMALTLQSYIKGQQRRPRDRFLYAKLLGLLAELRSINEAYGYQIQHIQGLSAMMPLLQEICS

PXR LBD = target: T2, PXR LBD (Homo sapiens, UniProt O75469); assay: TR-FRET PXR LBD competitive binding assay (LanthaScreen); settings: recombinant PXR LBD
T2 construct: purchased ThermoFisher Scientific
Method: The LanthaScreen TR-FRET PXR Competitive Binding Assay (ThermoFisher Scientific, USA) was performed to evaluate interaction with PXR LBD as we described. The assay measures the ability of an evaluated compound to replace the fluorescent PXR ligand from the receptor. The fluorescence was measured using a Synergy 2 Multi-Mode Microplate Reader (BioTek Winooski, VT, USA) (n = 3).

HepaRG KO CAR cells = assay: RT-qPCR mRNA expression in HepaRG KO CAR cells; assay type: cell-based, human
Description: HepaRG cells from Biopredic (Rennes, France) were cultivated and differentiated on the 12-well plates. […] Several batches of HepaRG KO CAR (CAR Knockout HepaRG™ Cells, MTOX1012-1VL, RRID:CVCL_B6AA) and PXR Knockout HepaRG™ Cells, MTOX1011-1VL, RRID:CVCL_B6AS) cells have been obtained from Sigma-Aldrich/Merck (Darmstadt, Germany) and cultivated according to the provider’s protocols. […] Experiments with HepaRG KO PXR and HepaRG KO CAR cells have been performed in duplicates at least in two independent experiments.
RT-qPCR was used to examine gene expression in 2D and 3D PHH, HepaRG cells, or in mouse liver or intestine (ileum) samples as we have described before[60]–[62].
All qRT-qPCR experiments including Trizol reagent (Life Technologies) total RNA isolation, reverse-transcription using a random hexaprimer, and the MMLV Reverse Transcriptase Kit (ThermoFisher Scientific) we have described before^19. qPCR was performed using TaqMan Fast Advanced Master Mix with TaqMan probes (ThermoFisher Scientific). […] The delta-delta method was used for gene expression quantification normalized to at least two reference genes. Three technical replicates were used for each reaction considering the MIQE guidelines. Data are presented as fold induction to vehicle-treated cells/animals.

PXR/NCOA1 = target: T3, PXR/NCOA1 (Homo sapiens, UniProt O75469); assay: Mammalian two-hybrid PXR/coactivator NCOA1 recruitment, HepG2; assay type: cell-based; parameters: key: firefly/Metridia luciferase activity ratio (normalized)
T3 construct: PXR-LBD (residues 108–434); expressed in transfected cells; host or cells: HepG2
T3 sequence (O75469 108-434): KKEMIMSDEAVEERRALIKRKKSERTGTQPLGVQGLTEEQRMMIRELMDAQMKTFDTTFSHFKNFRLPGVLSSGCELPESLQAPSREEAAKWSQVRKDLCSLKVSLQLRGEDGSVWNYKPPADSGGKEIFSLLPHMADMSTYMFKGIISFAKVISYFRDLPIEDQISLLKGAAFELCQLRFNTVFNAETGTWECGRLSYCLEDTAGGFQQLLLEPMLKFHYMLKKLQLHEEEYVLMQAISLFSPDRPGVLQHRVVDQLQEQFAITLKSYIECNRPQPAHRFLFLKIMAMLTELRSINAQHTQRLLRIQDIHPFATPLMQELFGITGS
Method: The GAL4-dependent pGL4-G5, harboring a pentamer of GAL4 binding sites in front of the E1b promoter was described before.
Transient batch transfection of HepG2 cells was done as described above. […] All transfections included 0.01 µg pMetLuc2control per well for normalization of firefly luciferase reporter activities. After overnight incubation with the transfection mixtures, cells were treated with chemicals in a volume of 100 µl of cell culture medium. […] Firefly luciferase activity was measured in 10 µl of cell lysates, and Metridia luciferase activity was analyzed in 10 µl of medium supernatant, both as described before. Results were normalized by dividing firefly luciferase activity by Metridia luciferase activity measured from the same well. Measurements of samples were repeated several times (n ≥ 3).

[2] = system: humanized PXR-CAR-CYP3A4/3A7 mice, liver; assay: UHPSFC/MS liver lipidomics (HFD study); assay type: in vivo, mouse
Method: Solvents, additives, lipid class internal standards, liver sample preparation, and UHPSFC/MS measurement are described in detail in Supplementary, Chapter 19. Lipid separation using UHPSFC (Acquity UPC^2 instrument from Waters; Milford, MA, USA) was performed on column Viridis BEH (100 × 3 mm, 1.7 µm) with the following conditions: the column temperature 60 °C, the flow rate 1.9 mL/min, and the injection volume 1 µL. The following linear gradient was performed using scCO2 and methanol (30 mM ammonium acetate + 1% of water) used as a modifier: 0 min – 1% modifier, 1.5 min – 16% modifier, 4 min – 51% modifier, 7 min – 51% modifier, 7.51 min – 1% modifier, and the equilibration with the total run time of 8 min. The automatic back-pressure regulator (ABPR) was set to 1800 psi and the autosampler temperature to 4 °C. Methanol with 30 mM ammonium acetate and 1% of water was used as the make-up solvent with a flow rate of 0.25 mL/min. The SFC was connected with the hybrid quadrupole - time of flight (QTOF) mass spectrometer Synapt G2-Si (Waters; Milford, MA, USA) with following conditions: sensitivity mode applying positive ESI mode, the mass range of m/z 150–1200, the capillary voltage of 3 kV, the sampling cone of 20 V, the source offset of 90 V, the source temperature of 150 °C, the desolvation temperature of 500 °C, the cone gas flow of 50 L/h, the desolvation gas flow of 1000 L/h, and the nebulizer gas flow of 4 bar. Mass spectra were acquired in the continuum mode with a scan time of 0.5 s and the peptide leucine enkephalin as the lock mass.
All UHPSFC/MS-QTOF spectra were acquired using MassLynx and processed as follows: noise reduction using the Compression tool followed by the lock mass correction and the conversion from continuum to centroid mode using the MassLynx tool (Accurate mass measure). […] Data were further analyzed using lipidr package. PCA and log2 fold change values were calculated using log2 transformed and Pareto scaled data. […]

[3] = Mouse plasma protein binding; assay type: in vitro ADME
Description: Plasma protein binding, and stability in human and mouse plasma have been tested as previously described.

[4] = Stability in human plasma; assay type: in vitro ADME; settings: plasma (legend: pooled human serum), read-out: Stability in human plasma, t1/2
Method: Plasma protein binding, and stability in human and mouse plasma have been tested as previously described. Supplementary Figure 1. […] Four time points over 120 minutes have been analyzed. […] Compounds were tested in triplicate with or without NADPH.

THα = THα (Homo sapiens, UniProt P10827); assay: Luciferase reporter gene assay THα, HepG2
Chain of THα (P10827 163-410 isoform P10827-2 limits assumed): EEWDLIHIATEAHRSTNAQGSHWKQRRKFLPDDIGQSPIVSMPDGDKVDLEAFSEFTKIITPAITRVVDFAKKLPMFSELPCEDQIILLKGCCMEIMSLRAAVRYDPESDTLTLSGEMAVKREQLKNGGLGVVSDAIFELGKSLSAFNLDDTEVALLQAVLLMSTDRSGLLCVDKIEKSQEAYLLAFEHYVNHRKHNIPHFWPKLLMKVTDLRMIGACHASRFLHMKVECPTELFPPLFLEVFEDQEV
Description: (§1) Gal4-LBD constructs of tested nuclear receptors have been used together with pGL4.31[luc2P/GAL4UAS/Hygro] luciferase reporter construct and pRL-TK Renilla expression vector (both from Promega, Hercules, USA) in HepG2 cells transfected with Lipofectamine 2000 or 3000 reagents. For GRα and FXR receptors, full-length expression vectors have been used with pGRE-luc or pFXRE-luc luciferase constructs. For the aryl hydrocarbon receptor (AhR), p1A1-luc construct was used with only pRL-TK vector for transfection normalization. A dual reporter assay (Promega, Hercules, USA) was used to analyze both firefly and Renilla luciferase activities.
(§2) Gal4-LBD constructs of tested nuclear receptors have been used together with pGL5-luc luciferase reporter construct and pRL-TK Renilla expression vector in HepG2 cells transfected with Lipofectamine 2000 or 3000 reagents. For GRα and FXR receptors, full-length expression vectors have been used with pGRE-luc or pFXRE-luc luciferase constructs. For the aryl hydrocarbon receptor (AhR), p1A1-luc construct was used with only pRL-TK vector for transfection normalization. […] Bars represent means±S.D. (n=3).

mouse Car = mouse Car (Mus musculus, UniProt O35627); assay: Luciferase reporter gene assay mouse Car, HepG2
Chain of mouse Car (O35627 whole entry): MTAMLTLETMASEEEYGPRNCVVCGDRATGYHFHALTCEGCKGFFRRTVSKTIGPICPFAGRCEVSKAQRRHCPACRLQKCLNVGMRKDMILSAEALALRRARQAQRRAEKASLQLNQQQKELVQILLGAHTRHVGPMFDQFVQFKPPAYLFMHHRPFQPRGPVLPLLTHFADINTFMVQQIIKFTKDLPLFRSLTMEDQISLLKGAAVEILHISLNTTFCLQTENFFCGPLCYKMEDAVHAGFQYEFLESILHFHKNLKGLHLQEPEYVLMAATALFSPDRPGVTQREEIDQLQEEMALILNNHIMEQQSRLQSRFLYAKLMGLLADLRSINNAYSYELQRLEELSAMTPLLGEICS
Description: The luciferase reporter gene assays for FXR, LXRα, LXRβ, THα, GRα, PPARα, PPARδ/β, PPARγ, AhR, VD, ERα, ERβ and mouse Car are described in our recent paper[19]
The mouse Car expression vector pCMV6-mCar (NM_009803) was obtained from OriGene Technologies, Rockville, MD, USA).
as §1, §2

For NC(=O)c1cc(Cn2cc(-c3c(-c4ccc(Cl)cc4)nc4cc(F)ccn34)nn2)ccc1Cl [MI-883, 2-chloro-5-((4-(2-(4-chlorophenyl)-7-fluoroimidazo[1,2-a]pyridin-3-yl)-1H-1,2,3-triazol-1-yl)methyl)benzamide], which “TR-FRET CAR Coactivator assay, mean signal (Fig. 1b)” value (from here on “TR-FRET CAR Coactivator assay”) ([1]; 100pM) is on record?
Its value is 1.

What about the “TR-FRET CAR Coactivator assay” value ([1]; 1nM) of the same molecule?
The value was 1.012.

And the “TR-FRET CAR Coactivator assay” value ([1]; 10nM)?
Its value is 1.235.

What about the “TR-FRET CAR Coactivator assay” value ([1]; 100nM) of the same molecule?
Its value is 1.572.

And the “TR-FRET CAR Coactivator assay” value ([1]; 0.5μM)?
Its value is 1.870.

And the “TR-FRET CAR Coactivator assay” value ([1]; 1 μM)?
Its value is 2.020.

And the “TR-FRET CAR Coactivator assay” value ([1]; 10 μM)?
The value was 2.020.

And the “TR-FRET CAR Coactivator assay” value ([1]; 30 μM)?
The value was 2.046.

And the EC50 ([1]; recombinant CAR LBD)?
Its EC50 is 73 ± 20 nM.

What about the IC50 (PXR LBD) of the same molecule?
Its IC50 is 100 ± 20 nM.

What about the “CYP7A1 mRNA in HepaRG KO CAR cells” value (HepaRG KO CAR cells) of the same molecule?
Its value is “induced”.

And the “CYP2B6 mRNA, RT-qPCR, HepaRG KO CAR (Fig. 1f), replicates” value (HepaRG KO CAR cells; Phenobarbital 500 μM, CITCO 1 μM, MI 883 1 μM, ctrl = 1)?
The value was 0.55 and 0.6 and 0.76.

And the “PXR/NCOA1 two-hybrid activity, replicates” value (PXR/NCOA1; MI-883 5 μM)?
The value was 0.25 and 0.27 and 0.49 and 0.53 and 0.45.

And the “PXR/NCOA1 two-hybrid activity, replicates” value (PXR/NCOA1; RIF + MI-883 5μM)?
Its value is 3.5 and 5.72 and 7.6 and 8.87 and 7.06.

And the “PXR/NCOA1 two-hybrid activity, replicates” value (PXR/NCOA1; RIF + MI-883 10μM)?
The value was 2.55 and 2.34 and 3.32 and 3.46.

And the “PXR/NCOA1 two-hybrid activity, replicates” value (PXR/NCOA1; single agent: RIF (10 µM), MI-883 10μM, control ~1)?
The value was 0.21 and 0.23 and 0.57 and 0.43 and 0.38.

And the “cholesteryl esters (CE) in livers, UHPSFC/MS lipidomics” value [2]?
The value was “not significantly altered”.

And the “total and some individual lysophosphatidylcholine (LPC) levels in liver” value [2]?
The value was “statistically significant decrease”.

What about the “liver triglycerides with long and highly unsaturated fatty acids (TG 60:12, TG 60:13)” value ([2]; male mice) of the same molecule?
The value was “significant increase”.

And the fraction unbound [3]?
The fraction unbound was 0.01.

What about the half-life at 1 µM [4] of the same molecule?
Its half-life at 1 µM is greater than 2 h.

What about the “NRs assays: TH (GL4-hTRa) (relative to ctrl, replicates)” value (THα) of the same molecule?
The value was 1.64 and 1.08 and 1.31.

What about the “NRs assays: mCar (relative to ctrl, replicates)” value (mouse Car) of the same molecule?
The value was 1.15 and 1.36 and 1.11.
